Values after ≈ are worked out from the molar mass of the structure shown. Where two headings read alike, the source gives them in different places.
Tests used:
[1] = cited from earlier work
physchem = details: pH 7.1, aqueous buffer

## COc1ccccc1OCCNCC(O)COc1cccc2[nH]c3ccccc3c12 (racemic) [Carvedilol]
[1]; above a pH of 9.0
  solubility: < 1 µg/mL
[1]; pH=5, room temperature
  saturation solubility: about 100 μg/mL
[1]; pH=7, room temperature
  saturation solubility: about 23 μg/mL
physchem
  solubility: 20 to 30 µg/mL (≈ 49.2 to 73.8 µM)

## COc1ccccc1OCCNCC(O)COc1cccc2[nH]c3ccccc3c12.Cl (centres unmarked) [hydrochloride salt of carvedilol]
[1]; acidic medium which simulates gastric fluid
  solubility of salt generated in situ: less soluble

Reference: patent publication US7750036B2 (SB Pharmco Puerto Rico Inc., priority 2004, dated 2010)
